According to paper PMC5318439, “The Novel Toll-Like Receptor 2 Agonist SUP3 Enhances Antigen Presentation and T Cell Activation by Dendritic Cells” (Frontiers in Immunology, 2017):
Where a SMILES comes first, the peptide text is derived from it. The star is where a group is joined. X1 = CCCCCCCCCCCCCCNC(=O)OC[C@H](C*)OC(=O)NCCCCCCCCCCCCCC; Palmitoyl = CCCCCCCCCCCCCCCC(=O)*

Key:
CD8^+ cDCs = assay: Costimulatory and MHC molecule expression on CD8+ cDCs in vitro; assay type: cell-based, mice; conditions: 200 nM, GM-CSF 20 ng/mL, 24 h, flow cytometry
Protocol: Single cell suspensions were prepared, and cells were stained by fluorescence-conjugated antibodies and viability dye 7-AAD (eBioscience 00-6993) at 4°C for 30 min in the dark. Cells were washed, resuspended, and analyzed on LSR Fortessa (Becton Dickinson).
Figure 4 SUP3 stimulated maturation of CD8^+ conventional dendritic cells (cDCs). (A) Purified CD8^+ cDCs were treated with SUP3 (200 nM) or Pam3 (200 nM) in the presence of granulocyte-macrophage colony-stimulating factor (GM-CSF) (20 ng/mL) for 24 h. The surface expression of costimulatory and major histocompatibility complex (MHC) molecules were then analyzed by flow cytometry. Representative data from three independent experiments were shown. “Isotype” represented relative isotype antibody staining of Pam3 or SUP3 stimulated cells. (B) SUP3 (2 nmol per mouse), Pam3 (2 nmol per mouse), or PBS were i.v. injected into mice for 1 h. Splenic CD8^+ cDCs were enriched, and surface expression of CD40 and CD86 was analyzed by flow cytometry. Representative data from two independent experiments with three mice for each group were shown. […] Supernatants were harvested 24 and 48 h post-stimulation, and cytokines were measured by ELISA. […]

splenic CD11b^+ cDCs = assay: CD86 expression on splenic CD11b+ cDCs after i.v. administration; assay type: in vivo, mice; conditions: 2 nmol per mouse i.v., 1 h
Protocol: Figure 5 SUP3 enhanced antigen presentation ability of CD11b^+ conventional dendritic cells (cDCs) and production of antibodies against thymus-dependent (TD) antigens. (A) Mice were immunized by TD antigen nitrophenyl-keyhole limpet hemocyanin (NP-KLH) (5 µg per mouse) with or without SUP3 (2 nmol per mouse), Pam3 (2 nmol per mouse), or alum (3 µg per mouse) as adjuvants, respectively. Serum IgM (nitrophenyl 30mer-captured, NP30-captured), total IgG (NP30-captured), and high affinity IgG (nitrophenyl 8mer-captured, NP8-captured) specific to NP at indicated time points were examined by ELISA. […] Three days after immunization, division of OT-II CD4^+ T cells from inguinal lymph nodes were analyzed by flow cytometry (B). Absolute numbers of proliferated OT-II CD4^+ T cells were calculated in (C). […] Cells were then thoroughly washed and cocultured with CFSE-stained OT-II CD4^+ T cells for 4 days and analyzed by flow cytometry. (D) The division of OT-II cells was measured by reduced level of CFSE-labeling. (E) Absolute numbers of proliferated T cells from (D) were calculated. (F) SUP3 (2 nmol per mouse), Pam3 (2 nmol per mouse), or PBS were i.v. injected into mice for 1 h, and splenic CD11b^+ cDCs were enriched and analyzed for CD86 expression by flow cytometry. […] The cytokines from supernatant were determined by ELISA (*p < 0.05, **p < 0.01). […]

Row | Compound | expression of CD40, CD80, CD86, and MHC-II on CD8+ cDCs (CD8^+ cDCs) | CD86 on splenic CD11b+ cDC in vivo (splenic CD11b^+ cDCs)
1 | CCCCCCCCCCCCCCCC(=O)N[C@@H](CSC[C@@H](COC(=O)NCCCCCCCCCCCCCC)OC(=O)NCCCCCCCCCCCCCC)C(=O)NCC(=O)N[C@@H](CCCCN)C(=O)N[C@@H](CCCCN)C(=O)N[C@@H](CCCCN)C(=O)O [SUP3, (2S,5S,8S,14R,18R)-2,5,8-tris(4-aminobutyl)-4,7,10,13,21-pentaoxo-14-palmitamido-18-((tetradecylcarbamoyl)oxy)-20-oxa-16-thia-3,6,9,12,22-pentaazahexatriacontan-1-oic acid] (Palmitoyl-C(X1)GKKK-OH) | substantial upregulation | CD86 upregulation
2 | Pam3CSK4 [reference compound] | substantial upregulation | CD86 upregulation
